# Test: Pharmacokinetic studies of the prodrugs of probucol in rats (oral gavage, plasma LC/MS/MS)
# Format: in vivo
# Details: male, Sprague Dawley, rat, 20 mg/kg prodrug by oral gavage, overnight fasting, analyte: prodrug; for AUC(0-t): read-out: AUC0-t of the prodrug in blood; for Cmax: read-out: Cmax of the prodrug in blood; for Tmax: read-out: tmax of the prodrug in blood
# Method: Four different kinds of probucol's prodrugs were prepared based on the example 1, 2, 3 and 4 to evaluate their pharmacodynamic and pharmacokinetic characteristics in rats.
# Three Sprague Dawley Male Rats were used in each experiment for each prodrug. The laboratory animal models are provided by Shanghai Super-B&K laboratory animal Corp. Ltd. (No. Of animal license SYXK(HU)2008-0016).
# Weighed 20 mg sample and dissolved it with 1 ml ethanol. Then, in turn, added 1 ml Solutol HS15 and 8 ml pH4.63 acetate buffer to make the final solution with the concentration of 2 mg/ml. The left soup were saved to run quantitative analysis.
# Three Sprague Dawley male rats were given the dose of […] (volume: 10 ml/kg) drugs by oral gavage under the condition of overnight fasting.
# Blood (volume: 0.1 ml) was drawn at 0.5, 1.0, 2.0, 4.0, 6.0, 8.0, 24.0 hours pre-dose and post-dose respectively to all animal subjects. Saved the blood samples in heparinized tubes and then centrifuged them for 10 minutes at […] at 4° C. The separated plasma was stored at −20° C. All the process including blood collection and blood analysis should be conducted in low temperatures. Standard meals were provided after 2 hours of dosing.
# API 4000 QTRAP LC/MS/MS (Applied Biosystems Corporation, US)
# LC-20AD HPLC system (Shimadzu Corporation, Japan)
# The prodrug and metabolite probucol were measured at the same time. Took 25 ul rat plasma that drawn at different time points after dosing, and then added 50 ul internal standard YX1162 (200 ng/ml, prepared by acetonitrile) and 175 ul acetonitrile, vortex mixed for 3 minutes, and then centrifuged at 13500 rpm for 10 minutes. Took 10 ul supernatant to run LC/MS/MS analysis.
# The prodrug and metabolite probucol were measured at the same time. Took 25 ul rat blank plasma, then added 25 ul solution of standard series to make the drug concentration 1.00, 2.00, 5.00, 25.0, 100, 500, 2000, 20000 and 40000 ng/ml. Next, added 50 ul internal standard YX1162 (200 ng/ml, prepared by acetonitrile) and 150 ul acetonitrile, then followed the same protocol shown in 3.4.
# Set plasma concentration as X-axis and the ratio of chromatographic peak areas for sample and internal standard as Y-axis, then used weighted least square method (w=1/x^2) to conduct linear regression analysis.
AUC(0-t) [µg·h/mL],Cmax [µg/mL],Tmax [h],SMILES
0.758 ± 0.204,0.218 ± 0.026,2.17 ± 1.31,CCOC(=O)OCOc1c(C(C)(C)C)cc(SC(C)(C)Sc2cc(C(C)(C)C)c(O)c(C(C)(C)C)c2)cc1C(C)(C)C [Example 1]
1.07 ± 0.404,0.268 ± 0.056,2.37 ± 1.41,CCOC(=O)OC(C)Oc1c(C(C)(C)C)cc(SC(C)(C)Sc2cc(C(C)(C)C)c(O)c(C(C)(C)C)c2)cc1C(C)(C)C (stereo not drawn) [Example 2]
